Test results: patent US20250154171A1, “RAS INHIBITORS” (Revolution Medicines, Inc., priority 2023, published 2025)
Where two headings read alike, the source gives them in different places. One block for each compound: values may come before it.

Columns and labels:
K-RasG12V (Capan-1) = assay: Potency assay: cellular pERK (AlphaLISA SureFire or In-Cell Western), Capan-1; assay type: cell-based; settings: Homo sapiens; Capan-1 cells; 4 hours; in at least one of the assays (AlphaLISA or In-Cell Western); read-out: pERK IC50 with respect to K-RasG12V (Capan-1)
From the text: The purpose of this assay is to measure the ability of test compounds to inhibit K-Ras in cells. Activated K-Ras induces increased phosphorylation of ERK at Threonine 202 and Tyrosine 204 (PERK). This procedure measures a decrease in cellular pERK in response to test compounds. The procedure described below in Capan-1 cells is applicable to K-RasG12V.
Note: This protocol may be executed substituting other cell lines to characterize inhibitors of other RAS variants, including, for example, NCI-H358 (K-Ras G12C), AsPC-1 (K-Ras G12D), Capan-1 (K-Ras G12V), or NCI-H1355 (K-Ras G13C).
Cells are grown and maintained using media and procedures recommended by the ATCC. On the day prior to compound addition, cells are plated in 384-well cell culture plates (40 μl/well) and grown overnight in a 37° C., 5% CO2 incubator. Test compounds are prepared in 10, 3-fold dilutions in DMSO, with a high concentration of 10 mM. On the day of assay, 40 nL of test compound is added to each well of cell culture plate using an Echo550 liquid handler (LabCyte®). Concentrations of test compound are tested in duplicate. After compound addition, cells are incubated 4 hours at 37° C., 5% CO2. Following incubation, culture medium is removed, and cells are washed once with phosphate buffered saline.
In some experiments, cellular pERK level is determined using the AlphaLISA SureFire Ultra p-ERK1/2 Assay Kit (PerkinElmer). Cells are lysed in 25 μL lysis buffer, with shaking at 600 RPM at room temperature. Lysate (10 μL) is transferred to a 384-well Opti-plate (PerkinElmer) and 5 μL acceptor mix is added. After a 2-hour incubation in the dark, 5 μL donor mix is added, plate is sealed, and incubated 2 hours at room temperature. Signal is read on an Envision plate reader (PerkinElmer) using standard AlphaLISA settings. Analysis of raw data is carried out in Excel (Microsoft) and Prism (GraphPad). Signal is plotted vs. the decadal logarithm of compound concentration, and IC50 is determined by fitting a 4-parameter sigmoidal concentration response model.
In other experiments, cellular pERK is determined by In-Cell Western. Following compound treatment, cells are washed twice with 200 μL tris buffered saline (TBS) and fixed for 15 minutes with 150 μL 4% paraformaldehyde in TBS. Fixed cells are washed 4 times for 5 minutes with TBS containing 0.1% Triton X-100 (TBST) and then blocked with 100 μL Odyssey blocking buffer (LI-COR) for 60 minutes at room temperature. Primary antibody (PERK, CST-4370, Cell Signaling Technology) is diluted 1:200 in blocking buffer, and 50 μL is added to each well and incubated overnight at 4° C. Cells are washed 4 times for 5 minutes with TBST. Secondary antibody (IR-800CW rabbit, LI-COR, diluted 1:800) and DNA stain DRAQ5 (LI-COR, diluted 1:2000) are added and incubated 1-2 hours at room temperature. Cells are washed 4 times for 5 minutes with TBST. Plates are scanned on a Li—COR Odyssey CLx Imager. Analysis of raw data is carried out in Excel (Microsoft) and Prism (GraphPad). Signal is plotted vs. the decadal logarithm of compound concentration, and IC50 is determined by fitting a 4-parameter sigmoidal concentration response model.

Compound: CO[C@@H](C)c1ncc(N2CCN(C3CC3)CC2)cc1-c1c2c3cc(ccc3n1CCOC1CCOCC1)-c1csc(n1)[C@@H](N1CCCC1)[C@H](NC(=O)OC(C)(C)C)C(=O)N1CCC[C@H](N1)C(=O)OCC(C)(C)C2
ring closure, isolated yield (from CO[C@@H](C)c1ncc(N2CCN(C3CC3)CC2)cc1-c1c(CC(C)(C)CO)c2cc(-c3csc([C@H]([C@H](NC(=O)OC(C)(C)C)C(=O)N4CCC[C@@H](C(=O)O)N4)N4CCCC4)n3)ccc2n1CCOC1CCOCC1, ester bond, 18-membered ring, EDCI/HOBt/DIEA, CH2Cl2, 9.59 mM, 25.0 °C): 54.7%

Compound: tert-butyl ((6^3S,3R,4S)-1^2-(5-(4-cyclopropylpiperazin-1-yl)-2-((S)-1-methoxyethyl)pyridin-3-yl)-3-ethoxy-10,10-dimethyl-5,7-dioxo-1^1-(2-((tetrahydro-2H-pyran-4-yl)oxy)ethyl)-6^1,6^2,6^3,6^4,6^5,6^6-hexahydro-1^1H-8-oxa-2 (5,2)-oxazola-1(5,3)-indola-6(1,3)-pyridazinacycloundecaphane-4-yl) carbamate
ring closure, isolated yield (cc_pd bond, 18-membered ring, XPhos Pd G3/XPhos/K3PO4, toluene/dioxane/H2O, 53.0 mM, 80.0 °C): 16.3%

IC50 (K-RasG12V (Capan-1)): < 650 nM
Compound: CO[C@@H](C)c1ncccc1-c1c2c3cc(ccc3n1C1CN(C3CC3)C1)-c1csc(n1)[C@@H](N1CC3(CCN3C3COC3)C1)[C@H](NC(=O)[C@@H]1[C@@H](C)[C@H]1c1ccncn1)C(=O)N1CCC[C@H](N1)C(=O)OCC(C)(C)C2 (atropisomer, axis not shown) [Example A1076]

Compound: C[C@@H]1OC[C@H](C)OCCn2c(c(CC(C)(C)CO[Si](c3ccccc3)(c3ccccc3)C(C)(C)C)c3cc(Br)ccc32)-c2cccnc21
ring closure, isolated yield (from C[C@H](OC[C@H](C)OCCBr)c1ncccc1-c1[nH]c2ccc(Br)cc2c1CC(C)(C)CO[Si](c1ccccc1)(c1ccccc1)C(C)(C)C, amine bond, 11-membered ring, Cs2CO3, DMF, 119.0 mM, 60.0 °C, 1.0 h): 76.9%

IC50 (K-RasG12V (Capan-1)): < 650 nM
Compound: CO[C@@H](C)c1ncccc1-c1c2c3cc(ccc3n1[C@H]1C[C@@H](C#N)C1)-c1csc(n1)[C@@H](N1CC3(CCCN3)C1)[C@H](NC(=O)[C@H]1[C@H](C)[C@@H]1C)C(=O)N1CCC[C@H](N1)C(=O)OCC(C)(C)C2 (atropisomer, axis not shown) [Example A1168]

Compound: CO[C@@H](C)c1ncc(N2CCN(C(=O)OCc3ccccc3)CC2)cc1-c1c2c3cc(ccc3n1CCO[C@H]1CCOC(C)(C)C1)-c1nc(co1)[C@@H](N1CCCC1)[C@H](NC(=O)OC(C)(C)C)C(=O)N1N[C@H](C(=O)OCC(C)(C)C2)C2CC1C2
ring closure, isolated yield (from CO[C@@H](C)c1ncc(N2CCN(C(=O)OCc3ccccc3)CC2)cc1-c1c(CC(C)(C)COC(=O)[C@H]2NN(C(=O)[C@@H](NC(=O)OC(C)(C)C)[C@@H](c3coc(Br)n3)N3CCCC3)C3CC2C3)c2cc(B3OC(C)(C)C(C)(C)O3)ccc2n1CCO[C@H]1CCOC(C)(C)C1, cc_pd bond, 18-membered ring, Pd(DtBPF)Cl2/K3PO4, toluene/dioxane/H2O, 15.9 mM, 80.0 °C, 2.0 h): 24%

Compound: CO[C@@H](C)c1ncc(N2CCN(C3CC3)CC2)cc1-c1c2c3cc(ccc3n1CCO[C@H]1CCOC(C)(C)C1)-c1coc(n1)[C@@H](N1CC3(COC3)C1)[C@H](NC(=O)OC(C)(C)C)C(=O)N1CC3CC(C3)(N1)C(=O)OCC(C)(C)C2
ring closure, isolated yield (from CO[C@@H](C)c1ncc(N2CCN(C3CC3)CC2)cc1-c1c(CC(C)(C)CO)c2cc(-c3coc([C@H]([C@H](NC(=O)OC(C)(C)C)C(=O)N4CC5CC(C(=O)O)(C5)N4)N4CC5(COC5)C4)n3)ccc2n1CCO[C@H]1CCOC(C)(C)C1, ester bond, 18-membered ring, PyBOP/DMAP/DIEA, CH2Cl2, 1.83 mM, 20.0 °C, 15.0 h): 62.5%

Compound: CO[C@@H](C)c1ncccc1-c1c2c3cc(ccc3n1CCOC1CCOCC1)-c1csc(n1)[C@@H](N1CCOC[C@@H]1C#N)[C@H](NC(=O)OC(C)(C)C)C(=O)N1CCC[C@H](N1)C(=O)OC(C)(C)C2
ring closure, isolated yield (from CO[C@@H](C)c1ncccc1-c1c(CC(C)(C)O)c2cc(-c3csc([C@H]([C@H](NC(=O)OC(C)(C)C)C(=O)N4CCC[C@@H](C(=O)O)N4)N4CCOC[C@@H]4C#N)n3)ccc2n1CCOC1CCOCC1, ester bond, 18-membered ring, EDCI/HOBt/DIEA, CH2Cl2, 10.4 mM, 25.0 °C, 2.0 h): 31%

IC50 (K-RasG12V (Capan-1)): < 650 nM
Compound: CO[C@@H](C)c1ncccc1-c1c2c3cc(ccc3n1C1CN(C3CC3)C1)-c1csc(n1)[C@@H](N1CC3(CCN3C)C1)[C@H](NC(=O)[C@H]1[C@H](C)[C@@H]1C)C(=O)N1CCC[C@H](N1)C(=O)OCC(C)(C)C2 (atropisomer, axis not shown) [Example A1191]

IC50 (K-RasG12V (Capan-1)): < 650 nM
Compound: CO[C@@H](C)c1ncc(N2CCN(C3CC3)CC2)cc1-c1c2c3cc(ccc3n1CCOC1CCOCC1)-c1csc(n1)[C@@H](N1CC3(COC3)C1)[C@H](NC(=O)[C@@H]1[C@@H](C)[C@H]1C(=O)N1CCN(C)CC1)C(=O)N1CCC[C@H](N1)C(=O)OCC(C)(C)C2 (atropisomer, axis not shown) [Example A1083]

IC50 (K-RasG12V (Capan-1)): < 650 nM
Compound: CO[C@@H](C)c1ncccc1-c1c2c3cc(ccc3n1C1CN(C3CC3)C1)-c1coc(n1)[C@@H](N1CC3(CCCN3C)C1)[C@H](NC(=O)[C@@H]1[C@@H](C)[C@H]1c1ccncn1)C(=O)N1CCC[C@H](N1)C(=O)OCC(C)(C)C2 (atropisomer, axis not shown) [Example A1086]

Compound: tert-butyl ((6^4S,3S,4S,Z)-12-(5-(4-cyclopropylpiperazin-1-yl)-2-((S)-1-methoxyethyl)pyridin-3-yl)-10,10-dimethyl-3-morpholino-5,7-dioxo-11-(2-((tetrahydro-2H-pyran-4-yl)oxy)ethyl)-11H-8-oxa-6^2,6^3-diaza-2(4,2)-thiazola-1(5,3)-indola-6 (2,4)-bicyclo[3.1.1]heptanacycloundecaphane-4-yl) carbamate
ring closure, isolated yield (ester bond, 18-membered ring, EDCI/HOBt/DIEA, CH2Cl2, 4.68 mM, 30.0 °C): 41%

IC50 (K-RasG12V (Capan-1)): < 650 nM
Compound: CO[C@@H](C)c1ncccc1-c1c2c3cc(ccc3n1[C@H]1C[C@@H](C#N)C1)-c1csc(n1)[C@@H](N1CC3(CCCN3C)C1)[C@H](NC(=O)[C@H]1[C@H](C)[C@@H]1C)C(=O)N1CCC[C@H](N1)C(=O)OCC(C)(C)C2 (atropisomer, axis not shown) [Example A983]

Compound: CO[C@@H](C)c1ncccc1-c1c2c3cc(ccc3n1CCO[C@H]1CCOC(C)(C)C1)-c1coc(n1)C[C@H](NC(=O)OC(C)(C)C)C(=O)N1N[C@H](C(=O)OCC(C)(C)C2)C2CC1C2
ring closure, isolated yield (from CO[C@@H](C)c1ncccc1-c1c(CC(C)(C)CO)c2cc(-c3coc(C[C@H](NC(=O)OC(C)(C)C)C(=O)N4N[C@H](C(=O)O)C5CC4C5)n3)ccc2n1CCO[C@H]1CCOC(C)(C)C1, ester bond, 18-membered ring, EDCI/HOBt/DIEA, MeCN, 11.5 mM, 35.0 °C, 2.0 h): 30.6%

IC50 (K-RasG12V (Capan-1)): < 650 nM
Compound: CO[C@@H](C)c1ncccc1-c1c2c3cc(ccc3n1C1CN(C3CC3)C1)-c1coc(n1)[C@@H](N1CCN(C)CC1)[C@H](NC(=O)[C@@H]1[C@@H](C)[C@H]1c1ccncn1)C(=O)N1CCC[C@H](N1)C(=O)OCC(C)(C)C2 (atropisomer, axis not shown) [Example A1104]

Compound: CO[C@@H](C)c1ncc([C@@H]2CCN(C3CC3)C2)cc1-c1c2c3cc(ccc3n1CCOC1CCOCC1)-c1csc(n1)[C@@H](N1CC(C)(OC)C1)[C@H](NC(=O)OC(C)(C)C)C(=O)N1CCC[C@H](N1)C(=O)OCC(C)(C)C2
ring closure, isolated yield (from CO[C@@H](C)c1ncc([C@@H]2CCN(C3CC3)C2)cc1-c1c(CC(C)(C)CO)c2cc(-c3csc([C@H]([C@H](NC(=O)OC(C)(C)C)C(=O)N4CCC[C@@H](C(=O)O)N4)N4CC(C)(OC)C4)n3)ccc2n1CCOC1CCOCC1, ester bond, 18-membered ring, EDCI/HOBt/DIEA, CH2Cl2, 9.4 mM, 25.0 °C, 16.0 h): 43.6%

Compound: CO[C@@H](C)c1ncc(N2CCN(C3CC3)CC2)cc1-c1c2c3cc(ccc3n1CCOC1CCOCC1)-c1csc(n1)[C@@H](N1CC3(COC3)C1)[C@H](NC(=O)OC(C)(C)C)C(=O)N1CCC[C@H](N1)C(=O)OCC(C)(C)C2
ring closure, isolated yield (from CO[C@@H](C)c1ncc(N2CCN(C3CC3)CC2)cc1-c1c(CC(C)(C)CO)c2cc(-c3csc([C@H]([C@H](NC(=O)OC(C)(C)C)C(=O)N4CCC[C@@H](C(=O)O)N4)N4CC5(COC5)C4)n3)ccc2n1CCOC1CCOCC1, ester bond, 18-membered ring, EDCI/HOBt/DIEA, CH2Cl2, 9.35 mM, 25.0 °C): 27.3%
